Measured values taken from patent publication US8071589B2, “Dihydrobenzoindazoles” (N. V. Organon, priority 2009, dated 2011).
pEC50: −log10 of the molar value.

target: T1, human FSH receptor (Homo sapiens, UniProt P23945); experiment: Agonistic activity at the human FSH receptor expressed in CHO cells (CRE-luciferase reporter)
T1 sequence (P23945 18-695): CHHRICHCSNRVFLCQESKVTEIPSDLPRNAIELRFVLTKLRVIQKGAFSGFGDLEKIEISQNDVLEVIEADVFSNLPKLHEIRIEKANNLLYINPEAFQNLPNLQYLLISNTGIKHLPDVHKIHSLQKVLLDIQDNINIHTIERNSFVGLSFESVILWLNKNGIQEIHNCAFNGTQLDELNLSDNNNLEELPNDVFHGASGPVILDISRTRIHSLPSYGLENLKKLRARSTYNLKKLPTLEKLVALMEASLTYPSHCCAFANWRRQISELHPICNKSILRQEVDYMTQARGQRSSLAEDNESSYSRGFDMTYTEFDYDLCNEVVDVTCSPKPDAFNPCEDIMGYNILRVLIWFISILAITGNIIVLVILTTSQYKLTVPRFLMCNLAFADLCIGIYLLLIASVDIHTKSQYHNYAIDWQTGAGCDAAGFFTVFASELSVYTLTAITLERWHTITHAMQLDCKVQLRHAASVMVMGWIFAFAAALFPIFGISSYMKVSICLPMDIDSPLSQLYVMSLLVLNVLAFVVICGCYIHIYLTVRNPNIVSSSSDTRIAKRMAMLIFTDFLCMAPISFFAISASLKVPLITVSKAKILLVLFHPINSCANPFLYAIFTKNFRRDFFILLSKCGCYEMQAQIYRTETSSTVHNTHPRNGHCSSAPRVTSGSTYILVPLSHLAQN
Text: The term EC50 means the concentration of the test compound that elicits half-maximal (50%) stimulation compared to the compound's maximally attainable effect. pEC50 is the negative log of EC50. The values can be determined e.g. in a cell line transfected with a FSH receptor gene and cotransfected with a cAMP responsive element/promoter directing the expression of a reporter gene. For the determination a software program such as MathIQ (version 2.0, ID Business Solutions Limited) can be used.
Agonistic activity of the compounds at the human FSH receptor was determined in Chinese Hamster Ovary (CHO) cells stably transfected with the human FSH receptor and cotransfected with a cAMP responsive element (CRE)/promotor directing the expression of a firefly luciferase reporter gene. […] Cells (7,500 cells/well of a 384 well plate) were incubated in Dulbecco' minimal essential F12 modified medium (Invitrogen), supplemented with 1 μg/ml bovine insulin, 5 μg/ml human apo-transferrin, 80 U/ml penicillin G and 80 μg/ml streptomycin with the test compounds (concentration between 0.0316 nM and 10.0 μM) in duplicate in a humidified atmosphere (95%) at 5-7% CO2 and 37° C. The final concentration of DMSO was 1%. After 4 hours of incubation, plates were allowed to adjust to room temperature for 1 hour. Then, Luclite (PerkinElmer) solution was added to the wells and cells were allowed to lyse for at least 1 hour at room temperature. Subsequently, luciferase activity was measured in a luminescence counter. The signal is expressed as counts per second (cps). The EC50 (concentration of the test compound that elicits half-maximal (50%) luciferase stimulation compared to the compound's maximally attainable effect) and efficacy values (maximal effect of the test compound as percentage of the maximal effect of recombinant human FSH) of the compounds were determined using the software program MathIQ (version 2.0, ID Business Solutions Limited).

pEC50, > 7.00:
COc1cc2c(cc1OC(C)C)-c1c(c(C(=O)N(C)C(C)(C)C)nn1-c1cccs1)CC2 [Example 5b, N-tert-butyl-8-isopropoxy-7-methoxy-N-methyl-1-(thiophen-2-yl)-4,5-dihydro-1H-benzo[g]indazole-3-carboxamide]
COc1cc2c(cc1OC(C)C)-c1c(c(C(=O)N3CCCN(C(=O)C4CCC4)CC3)nn1-c1ccsc1)CC2 [Example 2g, (4-(cyclobutanecarbonyl)-1,4-diazepan-1-yl)(8-isopropoxy-7-methoxy-1-(thiophen-3-yl)-4,5-dihydro-1H-benzo[g]indazol-3-yl)methanone]
COc1cc2c(cc1OC(C)C)-c1c(c(C(=O)N3CCCN(C(=O)C4CCC4)CC3)nn1-c1ccc(F)cc1)CC2 [Example 3d, (4-(cyclobutanecarbonyl)-1,4-diazepan-1-yl)(1-(4-fluorophenyl)-8-isopropoxy-7-methoxy-4,5-dihydro-1H-benzo[g]indazol-3-yl)methanone]
COc1cc2c(cc1OC(C)C)-c1c(c(C(=O)N(C)C(C)(C)C)nn1-c1ccsc1)CC2 [Example 2h, N-tert-butyl-8-isopropoxy-7-methoxy-N-methyl-1-(thiophen-3-yl)-4,5-dihydro-1H-benzo[g]indazole-3-carboxamide]
COc1cc2c(cc1-c1cccnc1)-c1c(c(C(=O)N(C)C(C)(C)C)nn1-c1ccccc1Cl)CC2 [Example 11gb, N-tert-butyl-1-(2-chlorophenyl)-7-methoxy-N-methyl-8-(pyridin-3-yl)-4,5-dihydro-1H-benzo[g]indazole-3-carboxamide]
COc1cc2c(cc1OC(C)C)-c1c(c(C(=O)N3CCCN(C(C)=O)CC3)nn1-c1ccc(F)cc1)CC2 [Example 3c, 1-(4-(1-(4-fluorophenyl)-8-isopropoxy-7-methoxy-4,5-dihydro-1H-benzo[g]indazole-3-carbonyl)-1,4-diazepan-1-yl)ethanone]
